Assay results taken from PubChem BioAssay AID977628 (Broad Institute, 2014).
Inconclusive results are not listed. Activity calls are given as the source filed them.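 How the source made its calls: active means compound lowering the normal-ribosome reporter at least twice as much as the humanized-ribosome reporter, growth loss under a set limit; inconclusive means no clear call, values can overlap the other calls; inactive means the rest.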

Key:
[1] = test system: E. coli mixed WT/h24 culture total growth, OD600, 24 h; test: growth of wild-type and h24-humanized E. coli strains – h24 mutant RFP vs wild-type GFP, cherry-pick, dose response (AID 977628)
[2] = test system: E. coli WT GFP strain growth, fluorescence, 24 h; test: as above

Row | Structure (SMILES) | AC50 [1] [µM] | AC50 [2]
1 | Cc1ccc(NC(=O)c2cccs2)cc1[N+](=O)[O-] | > 100 | > 100 µM (inactive)
2 | CCOc1cccc2sc(NC(=O)CC)nc12 | > 100 | > 100 µM (inactive)
3 | CN(C)CCCN(C(=O)c1ccc(S(=O)(=O)N(C)Cc2ccccc2)cc1)c1nc2c(F)cccc2s1 | 39.3 | > 100 µM (inactive)
4 | CCN(CC)S(=O)(=O)c1ccc(O)c(C(=O)OCC(=O)NC23CC4CC(CC(C4)C2)C3)c1 | > 100 | > 100 µM (inactive)
5 | OCCN(Cc1ccccc1)Cc1ccc(Cl)cc1 | > 100 | > 100 µM (inactive)
6 | C=CCn1c(-c2sc(-c3ccccc3)nc2C)n[nH]c1=S | > 100 | > 100 µM (inactive)
7 | O=C(CC(=O)c1cccs1)c1ccncc1 | > 100 | > 100 µM (inactive)
8 | COc1ccc(OCC(=O)N2c3ccccc3CC2C)c([N+](=O)[O-])c1 (stereo unspecified) | > 100 | > 100 µM (inactive)
9 | Cc1ccc2nc(N(CCN(C)C)C(=O)C3CCN(S(=O)(=O)c4cccs4)CC3)sc2c1 | > 100 | > 100 µM (inactive)
10 | Cc1ccc(NC(=O)CCCSc2ccccc2)cc1S(=O)(=O)N1CCOCC1 | > 100 | > 100 µM (inactive)
11 | Cc1ccc(N(CC(O)Cn2nc(C)cc2C)S(=O)(=O)c2ccc3ccccc3c2)cc1 (stereo unspecified) | 49.4 | > 100 µM (inactive)
12 | Cc1nc2ccc(Br)cc2c(=O)n1Cc1cccs1 | 49.7 | > 100 µM (inactive)
13 | CCOC(=O)c1[nH]c2ccccc2c1NC(=O)c1ccc(Br)o1 | 41.7 | > 100 µM (inactive)
14 | CCSc1nc2ccccc2c(=O)n1Cc1ccc(F)cc1 | 45.7 | > 100 µM (inactive)
15 | O=c1c2ccccc2cnn1Cc1n[nH]c(=S)n1C1CC2CCC1C2 (stereo unspecified) | > 100 | > 100 µM (inactive)
16 | Cc1onc(-c2ccccc2)c1-c1nnc(-c2ccccc2C(F)(F)F)o1 | > 100 | > 100 µM (inactive)
17 | Cc1c(C(=O)N(Cc2ccc(F)cc2)C2CCS(=O)(=O)C2)oc2ccccc12 (stereo unspecified) | > 100 | > 100 µM (inactive)
18 | Cc1cc(C(=O)OCC(=O)Nc2cccc(S(N)(=O)=O)c2)c2ccccc2n1 | > 100 | > 100 µM (inactive)
19 | COc1ccc(CNC(=O)c2cc3c(s2)CN(Cc2ccccc2)C3)cc1 | > 100 | > 100 µM (inactive)
20 | COc1cc2c(cc1NC(=O)C(C)Sc1cccc[n+]1[O-])oc1ccccc12 (stereo unspecified) | > 100 | > 100 µM (inactive)
21 | CCOc1ccc(OCC)c(NC(=O)CSc2nc3c(c(=O)n(C)c(=O)n3C)n2C(C)C)c1 | 45.5 | > 100 µM (inactive)
22 | O=C(CN(c1ccc(F)cc1)S(=O)(=O)c1ccccc1)Nc1ccccc1C(=O)O | > 100 | > 100 µM (inactive)
23 | O=C(Cn1cc(COc2c(F)c(F)cc(F)c2F)nn1)c1ccc(O)cc1 | > 100 | > 100 µM (inactive)
24 | COC(=O)c1ccc2nc(-c3ccc(OC)c(OC)c3)c(Cc3ccc(C)cc3)n2c1 | > 100 | > 100 µM (inactive)
25 | Cc1cc(OCC(=O)N(Cc2ccco2)C2CCS(=O)(=O)C2)ccc1Cl (stereo unspecified) | > 100 | > 100 µM (inactive)
26 | CCOc1ccc2oc(C(=O)NC3CCN(Cc4ccccc4)CC3)c(C)c2c1 | > 100 | > 100 µM (inactive)
27 | Cc1onc(-c2ccccc2Cl)c1C(=O)N[C@@H](C)c1ccccc1 | > 100 | > 100 µM (inactive)

Row | Structure (SMILES) | AC50 [1] [µM] | AC50 [2]
28 | CC(=O)c1c(C)nn(CC(O)COc2ccc3c(c2)CCC3)c1C (stereo unspecified) | 50.1 | > 100 µM (inactive)
29 | C=C1SC(Nc2c(C)cc(C)cc2C)=NC12CCCCC2 | 22.8 | > 100 µM (inactive)
30 | COc1ccc(S(=O)(=O)N2CCCCN3[C@@H](CO)[C@H](c4ccc(C#CC(C)C)cc4)[C@@H]3C2)cc1 | 47 | > 100 µM (inactive)
31 | Cc1ccccc1S(=O)(=O)N1C[C@H]2CON(C)[C@H]2C[C@H]1c1cccc(-c2ccc(C#N)cc2)c1 | > 100 | > 100 µM (inactive)
32 | COc1ccc(C(=O)Cn2nnc(-c3ccccc3F)n2)cc1 | 48.8 | > 100 µM (inactive)
33 | O=[N+]([O-])c1ccccc1Oc1ccc(Cl)c2cccnc12 | > 100 | > 100 µM (inactive)
34 | Cc1ccccc1COc1ccc(-c2nn[nH]n2)cc1 | 39.4 | > 100 µM (inactive)
35 | CCn1c(-c2ccccc2Cl)nn(CC(=O)Nc2ccccc2OC)c1=S | > 100 | > 100 µM (inactive)
36 | CC(C)(C)c1cc(-c2n[nH]c(=S)n2-c2ccc(Cl)cc2)n[nH]1 | > 100 | > 100 µM (inactive)
37 | COc1cc(C(F)(F)F)c(C(=O)N(C)Cc2ccc(Cl)c(Cl)c2)cn1 | > 100 | > 100 µM (inactive)
38 | CN(C)C(=O)c1ccc(NC(=O)CSc2nc3ccccc3[nH]2)cc1 | > 100 | > 100 µM (inactive)
39 | CC(C)Oc1ccc(C(CC(=O)O)NC(=O)C(Sc2ccccc2)c2ccccc2)cc1 (stereo unspecified) | > 100 | > 100 µM (inactive)
40 | CCCNC(=O)c1noc2c1CCc1cc(OC)ccc1-2 | 34.8 | > 100 µM (inactive)
41 | C(=C(c1ccccc1)c1ccccc1)c1ccccn1 | > 100 | > 100 µM (inactive)
42 | COc1ccc(N(C)S(=O)(=O)c2cccc(C(=O)NC3CCCCC3C)c2)cc1 (stereo unspecified) | 47.7 | > 100 µM (inactive)
43 | CN(Cc1ccccc1)C(=O)c1[nH]cnc1C(=O)NCc1ccccc1 | > 100 | > 100 µM (inactive)
44 | Cc1cc(NC(=O)COC(=O)CSCc2ccc(Cl)c(Cl)c2)no1 | > 100 | > 100 µM (inactive)
45 | O=C(Cc1coc2cc(O)ccc12)N1CCN(S(=O)(=O)c2ccc(Br)cc2)CC1 | 50.5 | > 100 µM (inactive)
46 | Cc1ccc(NC(=O)CN(C)S(=O)(=O)c2cccc3cccnc23)cc1F | > 100 | > 100 µM (inactive)
47 | CN(C)Cc1nc2ccccc2c(=O)n1Cc1nc(-c2cccc([N+](=O)[O-])c2)cs1 | > 100 | > 100 µM (inactive)
48 | CCc1cc(C(=O)N2CCCC(C(=O)c3cccc4ccccc34)C2)n(C)n1 (stereo unspecified) | > 100 | > 100 µM (inactive)
49 | Cc1ccc(C(=O)Nc2cccc(-c3cn4ccccc4n3)c2)cc1 | 51.5 | > 100 µM (inactive)
50 | COc1ccc(NC(=O)CCC(=O)c2cccs2)cc1S(=O)(=O)Nc1ccc(Cl)cc1 | > 100 | > 100 µM (inactive)
51 | CCC(=O)Nc1nc2c(OC)ccc(OC)c2s1 | > 100 | > 100 µM (inactive)
52 | O=S(=O)(Nc1ccc(-c2nc3cccnc3s2)cc1)c1cc(F)ccc1F | > 100 | > 100 µM (inactive)
53 | COC(=O)c1ccc(CSc2nc(-c3ccccc3)cs2)o1 | 27.1 | > 100 µM (inactive)
54 | NC(=O)C1Cc2ccccc2CN1C(=O)c1cc(C2CC2)nn1-c1ccccc1 (stereo unspecified) | 46.8 | > 100 µM (inactive)

Row | Structure (SMILES) | AC50 [1] [µM] | AC50 [2]
55 | CCCNC(=O)c1cc(C2CCCN(S(=O)(=O)c3cccc4cccnc34)C2)on1 (stereo unspecified) | > 100 | > 100 µM (inactive)
56 | COc1ccc(C(=O)COC(=O)c2ccccc2O)c(OC)c1 | 40 | > 100 µM (inactive)
57 | COc1ccc(C)cc1NC(=O)c1nn(C)cc1Br | > 100 | > 100 µM (inactive)
58 | O=C(Nc1ccc2nc3n(c(=O)c2c1)CCCCC3)c1c(F)ccc([N+](=O)[O-])c1F | > 100 | > 100 µM (inactive)
59 | COC(=O)c1cc(C(=O)Cc2ccccc2)c[nH]1 | > 100 | > 100 µM (inactive)
60 | CCOc1ccc(NC(=O)CCc2nnc3ccc(N4CCC(C)CC4)nn23)cc1 | > 100 | > 100 µM (inactive)
61 | O=C(Nc1cccc(Cl)c1)N1C[C@@H]2[C@H](c3ccccc31)[C@H](CO)N2Cc1ccncc1 | > 100 | > 100 µM (inactive)
62 | CCOC(=O)c1c(C)nsc1NCc1ccccc1 | 30.9 | > 100 µM (inactive)
63 | CCn1c(CNC(=O)c2ccccc2F)cc2cc(C)ccc21 | > 100 | > 100 µM (inactive)
64 | CC1(C(=O)NS(=O)(=O)c2cccc(Cl)c2)CCN1C(=O)C1(c2ccc(Cl)cc2)CCC1 (stereo unspecified) | > 100 | > 100 µM (inactive)
65 | Clc1cccc(OCc2nc(-c3ccncc3)n[nH]2)c1 | > 100 | > 100 µM (inactive)
66 | O=C(COn1nnc2ccc(C(F)(F)F)cc21)Nc1c(Cl)cccc1Cl | > 100 | > 100 µM (inactive)
67 | CCOc1ccccc1/C=C/c1cc(C(=O)O)c2ccccc2n1 | 37.6 | > 100 µM (inactive)
68 | COC(=O)C(Cc1csc2ccc(Cl)cc12)NC(=O)c1ccc(Cl)cc1 (stereo unspecified) | 31 | > 100 µM (inactive)
69 | Cc1cccc(C)c1-n1nnnc1C1(C)CCC(=O)N1Cc1cccs1 (stereo unspecified) | > 100 | > 100 µM (inactive)
70 | O=C(Nc1ccc(F)cc1)N1CCCCN2[C@@H](CO)[C@H](c3ccc(-c4ccncc4)cc3)[C@@H]2C1 | > 100 | > 100 µM (inactive)
71 | Cc1ccc(NC(=O)c2ccc(CSc3ccccn3)cc2)c(O)c1 | 22.2 | > 100 µM (inactive)
72 | CCOC(=O)Cc1nnc(NC(=O)CSc2nc3ccccc3[nH]2)s1 | > 100 | –
73 | S=c1nc(-c2cccc(Br)c2)[nH][nH]1 | > 100 | –
74 | Brc1ccccc1Cn1c(-c2cncs2)nc2ccccc21 | > 100 | –
75 | Cc1ccn2cc(-c3cccc(NC(=O)c4cccs4)c3)nc2c1 | > 100 | –
76 | COC(=O)CNC(=O)COC(=O)c1ccc(Cl)nc1 | > 100 | –
77 | COc1ccc(C(=O)NCCC2=CCCCC2)cc1[N+](=O)[O-] | > 100 | –
78 | O=S1(=O)N[C@H](Cc2ccccc2)COc2cc(N3CCSCC3)ccc21 | > 100 | –
79 | C=CCn1c(SCC(=O)Nc2ccc3c(c2)OCCO3)nnc1-c1ccco1 | > 100 | –
80 | Cc1ccc(C2NC(c3ccc(C)cc3)C(C)C(=O)C2C)cc1 (stereo unspecified) | > 100 | –
